How the values were obtained:
[1] = tested on: Mouse colon cancer MC38 cells; experiment: In vivo anti-tumor effect, MC38 mouse colon cancer transplantation tumor model; conditions: 15, 25 and 50 mg/kg PO BID x 20 days
Method: • Species: mouse • Strain: C57BL6 mouse • Week-age and weight: 6-7 weeks of age, 16-20 grams of body weight • Sex: Female • Supplier: Shanghai SLAC Laboratory Animal Co., Ltd.
Mouse colon cancer MC38 cells (OBiO Technology (Shanghai) Corp., Ltd.) were cultured in monolayer in vitro, and the culture conditions were DMEM culture medium (Gibco; article number: 12100) with 10% fetal bovine serum at 37° C. in 5% CO2 in an incubator. Conventional digestion treatment with 0.25% pancreatin-EDTA for passage was carried out. When the cells were in the exponential growth phase and the density was 80%-90%, the cells were harvested, counted, and inoculated. […]
Tumor diameter was measured twice a week with vernier calipers. […]
The tumor inhibition effect of the compound was evaluated by TGI (%) or relative tumor proliferation rate T/C (%). […] The relative tumor volume (RTV) was calculated according to the results of the tumor measurement. The calculation equation was RTV=Vt/V0, where V0 was the average tumor volume measured at the grouping and administration (i.e. D0), and Vt was the average tumor volume at the time of a certain measurement. […]
Statistical analysis was performed using SPSS software based on the tumor volume and the tumor weight at the end of the experiment. The comparison between two groups was analyzed by t-test, and the comparison between three or more groups was analyzed by one-way ANOVA.

[2] = tested on: Human prostatic cancer PC-3 cells; experiment: In vivo pharmacodynamics, PC-3 subcutaneous xenograft tumor model; conditions: 50 mg/kg PO BID x 21 days
Method: The formulation method of the test substance was the same as in Table 6, and the animal grouping and the dosage regimen were the same as in Table 7.
• Species: mouse • Strain: BALB/c nude mouse • Week-age and weight: 6-8 weeks of age, 18-22 grams of body weight • Sex: male • Supplier: Shanghai Sippr-BK laboratory animal Co. Ltd.
Human prostatic cancer PC-3 cells were cultured in monolayer in vitro, and the culture conditions were F-12K culture medium (supplier: Gibco; article number: 21127-022; manufacturing batch number: 1868870) with 10% fetal bovine serum, 100 U/mL penicillin and 100 μg/mL streptomycin. The culture was performed at 37° C. in 5% CO2. Conventional digestion treatment with pancreatin-EDTA for passage was carried out twice a week. When the cells were in the exponential growth phase, the cells were harvested, counted, and inoculated.
0.1 mL of 10×10^6 PC-3 cells were subcutaneously inoculated into the right-back of each nude mouse. The grouping and administration was started when the average tumor volume reached 100-150 mm^3.
3.3 Tumor measurement, experiment indices, and statistical analysis were the same as MDA-MB-231 model.

[3] = tested on: Human breast cancer MDA-MB-231_luc cells; experiment: In vivo pharmacodynamics, MDA-MB-231_luc subcutaneous xenograft tumor model; conditions: 50 mg/kg PO BID x 21 days
Method: • Species: mouse • Strain: BALB/c nude mouse • Week-age and weight: 6-8 weeks of age, 18-22 grams of body weight • Sex: Female • Supplier: Shanghai Sippr-BK laboratory animal Co. Ltd.
Human breast cancer MDA-MB-231_luc cells were cultured in monolayer in vitro and the culture conditions were RPMI-1640 culture medium (supplier: Gibco; article number: 22400-089; manufacturing batch number: 4868546) with 10% fetal bovine serum, 100 U/ml penicillin and 100 μg/mL streptomycin. The culture was performed at 37° C. in 5% CO2. Conventional digestion treatment with pancreatin-EDTA for passage was carried out twice a week. When the cells were in the exponential growth phase, the cells were harvested, counted, and inoculated. […]
The experiment index was to investigate whether tumor growth was inhibited, delayed or cured. Tumor diameter was measured twice a week with vernier calipers. […]
The tumor inhibition effect of the compound was evaluated by TGI (%) or relative tumor proliferation rate T/C (%). […]
Relative tumor proliferation rate T/C (%) was calculated according to the below equation: T/C %=TRTV/CRTV×100% (TRTV: RTV of the treatment group; CRTV: RTV of the negative control group). The relative tumor volume (RTV) was calculated according to the results of the tumor measurement. […]

## Cc1sc2c(c1C)C(c1ccc(Cl)cc1)=N[C@@H](CC(=O)Nc1ccc3c(c1)COC3=O)c1nnc(C)n1-2 [Compound of formula (I)]
[1]
  tolerance: good tolerance
[2]
  tolerability: well tolerated
[3]
  change in body weight of the animals: no significant change
  tolerability: well tolerated
